Reference: PMC7617869, “Molecular glues that inhibit deubiquitylase activity and inflammatory signaling” (Nature Structural & Molecular Biology, 2025)
Where “and” joins values, the source holds several entries; their conditions need not be identical. Identical values can stand only once. Values belong to the compound of their own block, whether it stands above or below them.

Legend:
BRISC = biological target: T1, BRISC (Homo sapiens, UniProt P46736+Q15018+Q9NXR7); test: BRISC DUB activity assay (IQF K63-linked diubiquitin); format: biochemical; settings: for Mean: Fig. 1d; for Normalised V0: replicate columns
T1 construct: made in house; host or cells: Spodoptera frugiperda (Sf9) insect cells, MultiBac
Protocol: IQF assays were performed in DUB reaction buffer containing 50 mM HEPES–NaOH pH 7.0, 100 mM NaCl, 0.1 mg ml^−1 BSA, 1 mM DTT and 0.03% v/v Brij-35. […] The final concentration of BRISC WT, all BRISC mutants, HsBRISCΔLoop, MmBRISC and DrBRISCΔNΔC was 1 nM. Other enzymes were tested at the following concentrations: 5 nM ARISC (FL), 10 nM CfBRISCΔNΔC, 250 nM AMSH* (ref. [43]), 500 nM USP2 and 1 μM trypsin (Sigma, 9002-07-7). For Michaelis–Menten experiments, 1 nM BRISC with 0–1 μM IQF K63-linked diubiquitin substrate was used. Michaelis–Menten analyses and Lineweaver–Burk plots were calculated using GraphPad Prism (version 9.0).
To assess enzymatic activity, BRISC complexes were diluted to concentrations between 1 nM and 50 nM. […] Then, 20-μl enzyme reactions were carried out in 384-well black flat-bottom low-flange plates (Corning, 35373). DUB activity was measured using IQF K63-linked diubiquitin (LifeSensors, DU6303) at 50 nM. Cleaved diubiquitin was monitored by measuring fluorescence intensity (excitation, 544 nm; emission, 575 nm; dichroic mirror, 560 nm). Fluorescence intensity was measured every minute for 30 min at 30 °C. Fluorescence intensity units were plotted against time to generate a linear reaction progress curve, where the initial velocity (V0) corresponds to the gradient of the curve (typically achieved within 15 min). IC50 values were calculated using the GraphPad Prism (version 9.0) built-in dose–response equation for inhibitor concentration versus response (variable slope).

BRISC (FL) = biological target: T2, BRISC (FL) (Homo sapiens, UniProt P46736+Q15018+Q9NXR7); test: In-gel deubiquitylation assay, TAMRA-labeled K63-tetraubiquitin, BRISC; format: biochemical; settings: 10 μM or 100 μM inhibitor
T2 construct: full-length BRISC (FL), ARISC (FL); made in house; host or cells: Spodoptera frugiperda Sf9 insect cells (MultiBac)
Protocol: The inhibitor capzimin (Merck) was diluted in 1 mM DTT and incubated for 30 min at room temperature to reduce disulfide bonds required for inhibitor activity. […] DUBs were incubated with 750 nM TAMRA-labeled K63-tetraubiquitin (LifeSensors, SI6304T) for 10 min at 30 °C. Reactions were quenched by adding 2.5 μl of 4× SDS–PAGE loading dye (240 mM Tris-HCl pH 6.8, 40% v/v glycerol, 8% w/v SDS, 0.04% w/v bromophenol blue and 5% v/v β-mercaptoethanol). The samples were resolved on 4–12% NuPAGE Bis–Tris gels (Thermo Fisher Scientific). Gels were scanned using an iBright FL 1500 (Thermo Fisher Scientific) (excitation, 515–545 nm; emission, 568–617 nm; exposure, 500 ms).

BRISC–SHMT2 interaction = biological target: T3, BRISC–SHMT2 interaction (Homo sapiens, UniProt P46736+Q15018+Q9NXR7); test: Dianthus spectral shift binding assay (BRISC–SHMT2); settings: labelled BRISC preincubated with 100 μM compound
T3 construct: His (tag of the complex); made in house
Protocol: Site-specific labeling of His-tagged BRISC was performed using a RED-Tris-NTA second-generation labeling kit (NanoTemper Technologies) in buffer containing 25 mM HEPES pH 7.5, 150 mM NaCl, 1 mM DTT and 0.005% Tween-20. First, 100 nM His–BRISC was incubated with 25 nM RED-Tris-NTA dye and prepared according to the Nanotemper protocol. […] The reactions were carried out in 384-well Dianthus microplates (Nanotemper Technologies) with a 20-μl reaction volume. The measurements were performed using autoexcitation on a Dianthus NT.23 instrument at 25 °C using DI.Control software (version 2.1.1; Nanotemper Technologies). Data were analyzed using DI.Screening Analysis software (version 2.1.1; Nanotemper Technologies) and plotted in GraphPad Prism (version 10.1.0). KD values were determined using a GraphPad Prism built-in equation for total binding (one site).

[1] = test system: IFN-stimulated response elements (ISRE) in THP-1 cells; test: THP-1 ISRE luciferase reporter, IFNα2 stimulation; format: cell-based, human
Protocol: (§1) THP-1 in vitro experiments
(§2) THP-1-DualTM cells (InvivoGen), derived from a human monocytic cell line, isolated from a patient with acute monocytic leukaemia, were cultured as per manufacturer’s guidance. Cells were seeded at 1x10^6 cells/mL in RPMI1640 media containing 10% fetal bovine serum (FBS), 1% penicillin-streptomycin (PS) (Gibco Laboratories) with DMSO (0.1%) (control) or in media containing JMS-175- […]
(§3) ng/mL) (Merck Life Science), ODN 2216 (1 µM) (Miltenyi Biotec), or Poly:IC (1 µg/mL) (InvivoGen).
(§4) Tofacitinib (Cambridge Biosciences) at 0.4 µM was used for comparison against a known JAK inhibitor.
(§5) Cells were centrifuged at 300 g for 5 minutes. Supernatant was removed and subjected to simultaneous study of the NF -κB pathway, by monitoring the activity of secreted alkaline phosphatase reporter (SEAP), and the IRF pathway, by assessing the activity o f a secreted Lucia luciferase using QUANTI - Blue ™ Solution and QUANTI -Luc™ 4 Lucia/Gaussia (InvivoGen), respectively, as per manufacturer’s instructions. Pelleted cells were used for FACS analysis using IFNα/β R1 APC-conjugated antibody or isotype control (Biotechne, FAB245A and IC002A), or unstained staining procedure with and without Zombie GreenTM (Biolegend). Samples were analysed using CytoFlex LX (Beckman) (50,000 live cells per condition). Median fluorescence intensity for APC channel gated on single cell live cells was analysed and compared as a percentage to control (no stimulation condition). […]

[2] = test system: ISRE in THP-1 cells (TLR3 agonist polyI:C); test: THP-1 ISRE luciferase reporter, polyI:C stimulation; format: cell-based, human; settings: polyI:C 1 µg/mL, 0.4 μM, 16 h
Protocol: as §1, §2, §3, §4, §5

[3] = test system: ISRE in THP-1 cells (TLR9 agonist ODN 2216); test: THP-1 ISRE luciferase reporter, ODN 2216 stimulation; format: cell-based, human; settings: ODN 2216 1 µM, 0.4 μM, 16 h
Protocol: as §1, §2, §3, §4, §5

[4] = test system: NF-κB pathway in THP-1 cells; test: THP-1 NF-κB pathway SEAP reporter, lipopolysaccharide stimulation; format: cell-based, human; settings: LPS + compound, three replicates
Protocol: as §1, §2, §3, §4, §5

THP-1 cells = test: THP-1 live cell percentage; format: cell-based; settings: male, human, 16 h, 0.4 µM
Protocol: as §1, §2, §3, §4, §5

[5] = test system: IFNAR1 surface levels in THP-1 cells; test: THP-1 IFNAR1 surface levels (FACS); format: cell-based, human
Protocol: as §1, §2, §3, §4, §5

- Mean (BRISC; log[compound (μM)] 0.1931): 1.0068
- Mean (BRISC; log[compound (μM)] 0.4942): 1.0306
- Mean (BRISC; log[compound (μM)] 0.7959): 0.9990
- Mean (BRISC; log[compound (μM)] 1.0969): 1.0116
- Mean (BRISC; log[compound (μM)] 1.3979): 0.9713
- Mean (BRISC; log[compound (μM)] 1.6990): 1.1388
- Mean (BRISC; log[compound (μM)] 2.0000): 1.0728
- Mean (BRISC; log[compound (μM)] 2.3010): 1.1033
- Mean (BRISC; log[compound (μM)] -0.1079): 1.1343
- Mean (BRISC; log[compound (μM)] -0.4089): 1.1217
- Mean (BRISC; log[compound (μM)] -0.7212): 1.1333
- Mean (BRISC; log[compound (μM)] -1.7212): 1.0000
- inhibition of BRISC DUB activity (in words) (BRISC; IQF diubiquitin assay): did not inhibit
- Normalised V0 (BRISC; [Inhibitor] 0.013 μM): 0.9578 and 1.102 and 0.7959 and 1.072
- Normalised V0 (BRISC; [Inhibitor] 0.02 μM): 0.8824 and 1.105
- Normalised V0 (BRISC; [Inhibitor] 0.0399999 μM): 1.048 and 1.358
- Normalised V0 (BRISC; [Inhibitor] 0.0599997 μM): 0.9169 and 1.23
- Normalised V0 (BRISC; [Inhibitor] 0.0799994 μM): 1.0394 and 1.173
- Normalised V0 (BRISC; [Inhibitor] 0.119998 μM): 0.856 and 0.7489
- Normalised V0 (BRISC; [Inhibitor] 0.199996 μM): 0.9661 and 1.115
- Normalised V0 (BRISC; [Inhibitor] 0.499975 μM): 0.9387 and 1.144
- Normalised V0 (BRISC; [Inhibitor] 0.799936 μM): 0.8532 and 1.098
- Normalised V0 (BRISC; [Inhibitor] 1.25984 μM): 0.9637 and 1.032
- Normalised V0 (BRISC; [Inhibitor] 1.9996 μM): 0.7701 and 1.137
- Normalised V0 (BRISC; [Inhibitor] 3.159 μM): 0.887 and 1.055
- Normalised V0 (BRISC; [Inhibitor] 5.19739 μM): 0.7796 and 1.219
- Normalised V0 (BRISC; [Inhibitor] 7.99364 μM): 0.912 and 1.161
- Normalised V0 (BRISC; [Inhibitor] 12.7839 μM): 0.972 and 1.143
- Normalised V0 (BRISC; [Inhibitor] 19.96 μM): 0.9311 and 1.165
- Normalised V0 (BRISC; [Inhibitor] 31.4999 μM): 0.8747 and 1.168
- Normalised V0 (BRISC; [Inhibitor] 50.147 μM): 0.908 and 1.016
- Normalised V0 (BRISC; [Inhibitor] 79.7601 μM): 0.7753 and 1.257
- Normalised V0 (BRISC; [Inhibitor] 125.99 μM): 0.9194 and 0.97
- Normalised V0 (BRISC; [Inhibitor] 199.922 μM): 0.8606 and 0.9293
- inhibition of BRISC cleavage of K63-linked tetraubiquitin (BRISC (FL)): did not inhibit
- Ratio 670 nm/650 nm (BRISC–SHMT2 interaction; SHMT2 0.00140381 μM): 1.077 and 1.081 and 1.064
- Ratio 670 nm/650 nm (BRISC–SHMT2 interaction; SHMT2 0.00280762 μM): 1.075 and 1.068 and 1.082
- Ratio 670 nm/650 nm (BRISC–SHMT2 interaction; SHMT2 0.00561523 μM): 1.073 and 1.081 and 1.075
- Ratio 670 nm/650 nm (BRISC–SHMT2 interaction; SHMT2 0.0112305 μM): 1.064 and 1.071 and 1.065
- Ratio 670 nm/650 nm (BRISC–SHMT2 interaction; SHMT2 0.0224609 μM): 1.049 and 1.052
- Ratio 670 nm/650 nm (BRISC–SHMT2 interaction; SHMT2 0.0449219 μM): 1.026 and 1.035 and 1.037
- Ratio 670 nm/650 nm (BRISC–SHMT2 interaction; SHMT2 0.0898438 μM): 1.012 and 1.013 and 1.006
- Ratio 670 nm/650 nm (BRISC–SHMT2 interaction; SHMT2 0.179688 μM): 0.993 and 0.976 and 0.943
- Ratio 670 nm/650 nm (BRISC–SHMT2 interaction; SHMT2 0.359375 μM): 0.948 and 0.935 and 0.925
- Ratio 670 nm/650 nm (BRISC–SHMT2 interaction; SHMT2 0.71875 μM): 0.903 and 0.887 and 0.836
- Ratio 670 nm/650 nm (BRISC–SHMT2 interaction; SHMT2 1.4375 μM): 0.863 and 0.84 and 0.841
- Ratio 670 nm/650 nm (BRISC–SHMT2 interaction; SHMT2 2.875 μM): 0.823 and 0.805 and 0.806
- Ratio 670 nm/650 nm (BRISC–SHMT2 interaction; SHMT2 5.75 μM): 0.792 and 0.756 and 0.785
- Ratio 670 nm/650 nm (BRISC–SHMT2 interaction; SHMT2 11.5 μM): 0.776 and 0.777 and 0.775
- Ratio 670 nm/650 nm (BRISC–SHMT2 interaction; SHMT2 23 μM): 0.77 and 0.773 and 0.777
- Ratio 670 nm/650 nm (BRISC–SHMT2 interaction; SHMT2 46 μM): 0.768 and 0.78 and 0.777
SMILES: O=C(NC1CCN(C(=O)c2c(Cl)cccc2Cl)CC1)c1n[nH]cc1NC(=O)c1c(Cl)cccc1Cl [AP-5-144]

- percentage of live cells (THP-1 cells): 98.18%
SMILES: C[C@@H]1CCN(C(=O)CC#N)C[C@@H]1N(C)c1ncnc2[nH]ccc12 [tofacitinib, reference compound]
- ISRE luciferase reporter signal (Fig. 5a) ([1]; IFN + compound, replicate values): 1776.67 and 1732 and 1959.33 and 2178.33
- ISRE relative expression ([1]; hIFNα2 25 ng/ml, 0.4 μM, 16 h): potent effect
- ISRE luciferase signal in THP-1 supernatant [2]: not reduced
- ISRE luciferase signal in THP-1 supernatant ([2]; listed as Tofacitinib): 199.667 and 316.333 and 317.333
- ISRE luciferase signal in THP-1 supernatant [3]: not reduced
- ISRE luciferase signal in THP-1 supernatant ([3]; listed as Tofacitinib): 198.333 and 276 and 283.333
- NF-κB SEAP reporter signal [4]: 1.232 and 1.181 and 1.209
- IFNAR1 surface levels (Fig. 5h) ([5]; IFN + compound, No IFN = 100): 59.2689 and 88.3889 and 79.9066
- IFNAR1 surface levels ([5]; THP-1, hIFNα2 25 ng/ml, 0.4 μM, 16 h): no significant reduction
